Data on one compound can be found in paper PMC5218480 (PLoS ONE, 2017).

This test deals with MV-4-11 cells. Nature of the test: Gene expression microarray analysis (Affymetrix PrimeView) and GSEA. Format: cell-based, human. Also on record: RFU PODN (11730768_x_at) / Fold change /veh PODN (11730768_x_at) / RFU LINC00158 (11744669_a_at) / Fold change /veh LINC00158 (11744669_a_at) / RFU DUSP10 (11751237_a_at) / Fold change /veh DUSP10 (11751237_a_at) / RFU ID3 (11757404_x_at) / Fold change /veh ID3 (11757404_x_at) / RFU PLEKHG5 (11737974_s_at) / Fold change /veh PLEKHG5 (11737974_s_at) / RFU LRRC4B (11730491_at) / Fold change /veh LRRC4B (11730491_at) / RFU GIMAP4 (11747438_a_at) / Fold change /veh GIMAP4 (11747438_a_at) / RFU KRT8 (11758183_x_at) / Fold change /veh KRT8 (11758183_x_at) / RFU CNN1 (11734310_a_at) / Fold change /veh CNN1 (11734310_a_at) / RFU VPS37D (11726825_at) / Fold change /veh VPS37D (11726825_at) / RFU C10orf10 (11716522_x_at) / Fold change /veh C10orf10 (11716522_x_at) / RFU KIR2DL2 /// KIR2DL4 /// KIR2DL5A /// KIR2DL5B /// KIR2DS1 /// KIR2DS2 /// KIR2DS3 /// KIR2DS4 /// KIR3DL3 /// KIR3DL3 /// KIR3DS1 (11738374_at) / Fold change /veh KIR2DL2 /// KIR2DL4 /// KIR2DL5A /// KIR2DL5B /// KIR2DS1 /// KIR2DS2 /// KIR2DS3 /// KIR2DS4 /// KIR3DL3 /// KIR3DL3 /// KIR3DS1 (11738374_at) / RFU C1QL1 (11718748_at) / Fold change /veh C1QL1 (11718748_at) / RFU TMPRSS4 (11747572_a_at) / Fold change /veh TMPRSS4 (11747572_a_at) / RFU HAMP (11756126_x_at) / Fold change /veh HAMP (11756126_x_at) / RFU RNFT2 (11725882_a_at) / Fold change /veh RNFT2 (11725882_a_at) / RFU NR4A2 (11747474_a_at) / Fold change /veh NR4A2 (11747474_a_at) / RFU ABCC12 (11746883_a_at) / Fold change /veh ABCC12 (11746883_a_at) / RFU TMEM136 (11760407_x_at) / Fold change /veh TMEM136 (11760407_x_at) / RFU CLDN22 /// WWC2 (11732394_at) / Fold change /veh CLDN22 /// WWC2 (11732394_at) / RFU HLA-DPB1 (11760878_x_at) / Fold change /veh HLA-DPB1 (11760878_x_at) / RFU SPINT1 (11716480_a_at) / Fold change /veh SPINT1 (11716480_a_at) / RFU GAP43 (11754022_s_at) / Fold change /veh GAP43 (11754022_s_at) / RFU A4GNT (11735810_at) / Fold change /veh A4GNT (11735810_at) / RFU PRB3 (11715151_x_at) / Fold change /veh PRB3 (11715151_x_at) / RFU TUBB4B (11761932_at) / Fold change /veh TUBB4B (11761932_at) / RFU CAPN14 (11732068_a_at) / Fold change /veh CAPN14 (11732068_a_at) / RFU TMCC2 (11721928_a_at) / Fold change /veh TMCC2 (11721928_a_at) / RFU IRGQ (11745062_a_at) / Fold change /veh IRGQ (11745062_a_at) / RFU FAM174B (11720279_a_at) / Fold change /veh FAM174B (11720279_a_at) / RFU TMPRSS4 (11748680_a_at) / Fold change /veh TMPRSS4 (11748680_a_at) / RFU FAM212B (11763350_a_at) / Fold change /veh FAM212B (11763350_a_at) / RFU PLEKHG5 (11743358_a_at) / Fold change /veh PLEKHG5 (11743358_a_at) / RFU ZSCAN30 (11745921_a_at) / Fold change /veh ZSCAN30 (11745921_a_at) / RFU CMKLR1 (11741424_a_at) / Fold change /veh CMKLR1 (11741424_a_at) / RFU LOC101060620 /// MAPK8IP1 (11723275_at) / Fold change /veh LOC101060620 /// MAPK8IP1 (11723275_at) / RFU SPTSSB (11747773_x_at) / Fold change /veh SPTSSB (11747773_x_at) / RFU PRSS12 (11739890_at) / Fold change /veh PRSS12 (11739890_at) / RFU BIN1 (11741810_x_at) / Fold change /veh BIN1 (11741810_x_at) / RFU WNT11 (11732464_a_at) / Fold change /veh WNT11 (11732464_a_at) / RFU C10orf10 (11716521_a_at) / Fold change /veh C10orf10 (11716521_a_at) / RFU C5orf56 (11738089_at) / Fold change /veh C5orf56 (11738089_at) / RFU CYB561 (11721691_x_at) / Fold change /veh CYB561 (11721691_x_at) / RFU ANKRD19P (11752326_a_at) / Fold change /veh ANKRD19P (11752326_a_at) / RFU OR2T12 /// OR2T33 /// OR2T8 (11738714_s_at) / Fold change /veh OR2T12 /// OR2T33 /// OR2T8 (11738714_s_at) / RFU VCAN (11748164_a_at) / Fold change /veh VCAN (11748164_a_at) / RFU JSRP1 (11732532_at) / Fold change /veh JSRP1 (11732532_at) / RFU KRTAP10-11 (11738290_x_at) / Fold change /veh KRTAP10-11 (11738290_x_at) / RFU MYO3A (11730013_a_at) / Fold change /veh MYO3A (11730013_a_at) / RFU EBF3 (11725865_a_at) / Fold change /veh EBF3 (11725865_a_at) / RFU CAMK2N1 (11719241_x_at) / Fold change /veh CAMK2N1 (11719241_x_at) / RFU C5orf56 (11738088_a_at) / Fold change /veh C5orf56 (11738088_a_at) / RFU OLFML3 (11715873_a_at) / Fold change /veh OLFML3 (11715873_a_at) / RFU LOC100653217 /// NTM (11731650_a_at) / Fold change /veh LOC100653217 /// NTM (11731650_a_at) / RFU MAPK11 (11762145_a_at) / Fold change /veh MAPK11 (11762145_a_at) / RFU FIZ1 (11724087_x_at) / Fold change /veh FIZ1 (11724087_x_at) / RFU OASL (11726364_x_at) / Fold change /veh OASL (11726364_x_at) / RFU SOX15 (11748057_x_at) / Fold change /veh SOX15 (11748057_x_at) / RFU CD79A (11719716_a_at) / Fold change /veh CD79A (11719716_a_at) / RFU HIST1H1D (11736915_at) / Fold change /veh HIST1H1D (11736915_at) / RFU CASKIN2 (11723855_a_at) / Fold change /veh CASKIN2 (11723855_a_at) / RFU LOC730098 (11760151_x_at) / Fold change /veh LOC730098 (11760151_x_at) / RFU OR4N2 (11742367_at) / Fold change /veh OR4N2 (11742367_at) / RFU PRRT2 (11749266_a_at) / Fold change /veh PRRT2 (11749266_a_at) / RFU SNX32 (11753110_a_at) / Fold change /veh SNX32 (11753110_a_at) / RFU CDHR5 (11726645_a_at) / Fold change /veh CDHR5 (11726645_a_at) / RFU RCAN1 (11760418_a_at) / Fold change /veh RCAN1 (11760418_a_at) / RFU FAM167A (11723789_a_at) / Fold change /veh FAM167A (11723789_a_at) / RFU FAM26E (11764081_at) / Fold change /veh FAM26E (11764081_at) / RFU ISYNA1 (11749810_s_at) / Fold change /veh ISYNA1 (11749810_s_at) / RFU ACY1 (11761880_at) / Fold change /veh ACY1 (11761880_at) / RFU 11764098_at / Fold change /veh 11764098_at / RFU SAMD14 (11745864_x_at) / Fold change /veh SAMD14 (11745864_x_at) / RFU NPB (11741838_a_at) / Fold change /veh NPB (11741838_a_at) / RFU TMPRSS6 (11731388_a_at) / Fold change /veh TMPRSS6 (11731388_a_at) / RFU KRTAP10-2 (11738614_at) / Fold change /veh KRTAP10-2 (11738614_at) / RFU ARHGAP8 /// PRR5-ARHGAP8 (11727945_x_at) / Fold change /veh ARHGAP8 /// PRR5-ARHGAP8 (11727945_x_at) / RFU KRTAP5-7 /// NADSYN1 (11734609_at) / Fold change /veh KRTAP5-7 /// NADSYN1 (11734609_at) / RFU RASL12 (11751679_a_at) / Fold change /veh RASL12 (11751679_a_at) / RFU CDKN2B (11736163_a_at) / Fold change /veh CDKN2B (11736163_a_at) / RFU PRF1 (11729649_at) / Fold change /veh PRF1 (11729649_at) / RFU, ZNF638 /// ZNF638-IT1 / Fold change vs veh, ZNF638 /// ZNF638-IT1 / RFU, PANK3 / Fold change vs veh, PANK3 / RFU, SH3YL1 / Fold change vs veh, SH3YL1 / RFU, ZEB2 / Fold change vs veh, ZEB2 / RFU, NRIP1 / Fold change vs veh, NRIP1 / RFU, PTTG1IP / Fold change vs veh, PTTG1IP / RFU, CAPN2 / Fold change vs veh, CAPN2 / RFU, MED14 / Fold change vs veh, MED14 / RFU, SNORA58 / Fold change vs veh, SNORA58 / RFU, C1orf63 / Fold change vs veh, C1orf63 / RFU, LRRFIP1 / Fold change vs veh, LRRFIP1 / RFU, NDUFAF7 / Fold change vs veh, NDUFAF7 / RFU, SLC12A2 / Fold change vs veh, SLC12A2 / RFU, IBTK / Fold change vs veh, IBTK / RFU, ESF1 / Fold change vs veh, ESF1 / Fold change vs veh, TMEM50B / RFU, TAOK1 / Fold change vs veh, TAOK1 / RFU, ACBD3 / Fold change vs veh, ACBD3 / RFU, TMA16 / Fold change vs veh, TMA16 / RFU, RWDD3 / Fold change vs veh, RWDD3 / RFU, BCAT1 / Fold change vs veh, BCAT1 / RFU, EDEM3 / Fold change vs veh, EDEM3 / RFU, TMEM33 / Fold change vs veh, TMEM33 / RFU, WDR75 / Fold change vs veh, WDR75 / RFU, AHCTF1 / Fold change vs veh, AHCTF1 / RFU, TFRC / Fold change vs veh, TFRC / RFU, ZDHHC17 / Fold change vs veh, ZDHHC17 / RFU, NOM1 / Fold change vs veh, NOM1 / RFU, ARL8B / Fold change vs veh, ARL8B / RFU, ZBTB11 / Fold change vs veh, ZBTB11 / RFU, TAMM41 / Fold change vs veh, TAMM41 / RFU, KIAA1704 /// LOC100996395 / Fold change vs veh, KIAA1704 /// LOC100996395 / RFU, ING1 / Fold change vs veh, ING1 / RFU, TRMT61B / Fold change vs veh, TRMT61B / RFU, FUBP3 / Fold change vs veh, FUBP3 / RFU, TP53 / Fold change vs veh, TP53 / RFU, TNKS2 / Fold change vs veh, TNKS2 / RFU, ZFP14 / Fold change vs veh, ZFP14 / RFU, ACTR2 / Fold change vs veh, ACTR2 / RFU, PPP3R1 / Fold change vs veh, PPP3R1 / RFU, PIK3R1 / Fold change vs veh, PIK3R1 / RFU, HNRNPA1 / Fold change vs veh, HNRNPA1 / RFU, RNF170 / Fold change vs veh, RNF170 / RFU, ZNF28 / Fold change vs veh, ZNF28 / RFU, RNGTT / Fold change vs veh, RNGTT / RFU, OGT / Fold change vs veh, OGT / RFU, BRD1 / Fold change vs veh, BRD1 / RFU, MARS / Fold change vs veh, MARS / RFU, ZNF655 / Fold change vs veh, ZNF655 / RFU, FAHD1 / Fold change vs veh, FAHD1 / RFU, BDP1 / Fold change vs veh, BDP1 / RFU, LRRCC1 / Fold change vs veh, LRRCC1 / RFU, ARID1A / Fold change vs veh, ARID1A / RFU, ZNF146 / Fold change vs veh, ZNF146 / RFU, ZNF330 / Fold change vs veh, ZNF330 / RFU, GPN3 / Fold change vs veh, GPN3 / RFU, C9orf123 / Fold change vs veh, C9orf123 / RFU, N4BP2L2 / Fold change vs veh, N4BP2L2 / RFU, ARFIP1 / Fold change vs veh, ARFIP1 / RFU, FAM179B / Fold change vs veh, FAM179B / RFU, BCL10 / Fold change vs veh, BCL10 / RFU, UHRF1BP1L / Fold change vs veh, UHRF1BP1L / RFU, BET1 / Fold change vs veh, BET1 / RFU, CNOT2 / Fold change vs veh, CNOT2 / RFU, ZNF268 / Fold change vs veh, ZNF268 / Fold change vs veh, ZNF507 / RFU, DGCR2 / Fold change vs veh, DGCR2 / RFU, WDSUB1 / Fold change vs veh, WDSUB1 / Fold change vs veh, HSP90B1 /// MIR3652 / RFU, ADSS / Fold change vs veh, ADSS / RFU, GK / Fold change vs veh, GK / RFU, ZNF148 / Fold change vs veh, ZNF148 / RFU, TAF9 / Fold change vs veh, TAF9 / RFU, SLC1A5 / Fold change vs veh, SLC1A5 / RFU, SLMO2 / Fold change vs veh, SLMO2 / RFU, ABCC4 / Fold change vs veh, ABCC4 / RFU, LOC101060439 /// RAP1B / Fold change vs veh, LOC101060439 /// RAP1B / RFU, RFX7 / Fold change vs veh, RFX7 / RFU, GTPBP10 / Fold change vs veh, GTPBP10 / RFU, CNEP1R1 / Fold change vs veh, CNEP1R1 / RFU, BIVM-ERCC5 /// ERCC5 / Fold change vs veh, BIVM-ERCC5 /// ERCC5 / RFU, ILF3 / Fold change vs veh, ILF3 / RFU 11762660_at / Fold change /veh 11762660_at / RFU VCAN (11757783_s_at) / Fold change /veh VCAN (11757783_s_at) / RFU DDX43 (11728927_at) / Fold change /veh DDX43 (11728927_at) / RFU KRT8 (11758188_x_at) / Fold change /veh KRT8 (11758188_x_at) / RFU NKD1 (11759106_at) / Fold change /veh NKD1 (11759106_at) / RFU SRD5A1 (11742802_a_at) / Fold change /veh SRD5A1 (11742802_a_at) / RFU TPSAB1 /// TPSB2 (11721975_s_at) / Fold change /veh TPSAB1 /// TPSB2 (11721975_s_at) / RFU GSTM3 (11746129_a_at) / Fold change /veh GSTM3 (11746129_a_at) / RFU IL23R (11737362_x_at) / Fold change /veh IL23R (11737362_x_at) / RFU TMEM51 (11727254_a_at) / Fold change /veh TMEM51 (11727254_a_at) / RFU PIWIL2 (11732686_x_at) / Fold change /veh PIWIL2 (11732686_x_at) / RFU ORM1 (11744905_x_at) / Fold change /veh ORM1 (11744905_x_at) / RFU CCDC152 (11743942_at) / Fold change /veh CCDC152 (11743942_at) / RFU ECM1 (11717891_a_at) / Fold change /veh ECM1 (11717891_a_at) / RFU IL23R (11748794_a_at) / Fold change /veh IL23R (11748794_a_at) / RFU TNFAIP8L3 (11732012_x_at) / Fold change /veh TNFAIP8L3 (11732012_x_at) / RFU MBOAT4 (11741988_at) / Fold change /veh MBOAT4 (11741988_at) / RFU 11764193_at / Fold change /veh 11764193_at / RFU TMEM53 (11763286_at) / Fold change /veh TMEM53 (11763286_at) / RFU MAGEB2 (11727129_at) / Fold change /veh MAGEB2 (11727129_at) / RFU TMEM200A (11744735_a_at) / Fold change /veh TMEM200A (11744735_a_at) / RFU CCDC152 (11751479_a_at) / Fold change /veh CCDC152 (11751479_a_at) / RFU FAM211A (11726209_a_at) / Fold change /veh FAM211A (11726209_a_at) / RFU RGS16 (11746705_a_at) / Fold change /veh RGS16 (11746705_a_at) / RFU VCAN (11755009_s_at) / Fold change /veh VCAN (11755009_s_at) / RFU RHOB (11743442_s_at) / Fold change /veh RHOB (11743442_s_at) / RFU RGS16 (11720943_a_at) / Fold change /veh RGS16 (11720943_a_at) / RFU RGS16 (11720944_at) / Fold change /veh RGS16 (11720944_at) / RFU, VPS4B / Fold change vs veh, VPS4B / RFU, CREB1 / Fold change vs veh, CREB1 / RFU, DNAJC13 / Fold change vs veh, DNAJC13 / RFU, GNAQ / Fold change vs veh, GNAQ / RFU, CDK5R1 / Fold change vs veh, CDK5R1 / RFU, ZRANB3 / Fold change vs veh, ZRANB3 / RFU, CUL4A / Fold change vs veh, CUL4A / RFU, CCNY / Fold change vs veh, CCNY / RFU, UFL1 / Fold change vs veh, UFL1 / RFU, COG3 / Fold change vs veh, COG3 / RFU, DIAPH2 / Fold change vs veh, DIAPH2 / RFU, SKA2 / Fold change vs veh, SKA2 / RFU, AFF3 / Fold change vs veh, AFF3 / RFU, LMF1 / Fold change vs veh, LMF1 / RFU, IPO11 / Fold change vs veh, IPO11 / RFU, DFFB / Fold change vs veh, DFFB / RFU, FOXP1 / Fold change vs veh, FOXP1 / RFU, CARD8 / Fold change vs veh, CARD8 / RFU, STRN3 / Fold change vs veh, STRN3 / RFU, ADK / Fold change vs veh, ADK / RFU, RASSF2 / Fold change vs veh, RASSF2 / RFU, WIPF1 / Fold change vs veh, WIPF1 / RFU, LARP1B / Fold change vs veh, LARP1B / RFU, RASA1 / Fold change vs veh, RASA1 / RFU, RB1 / Fold change vs veh, RB1 / RFU, PPFIA1 / Fold change vs veh, PPFIA1 / RFU, MAT2A / Fold change vs veh, MAT2A / RFU, CCT5 / Fold change vs veh, CCT5 / RFU, WDR92 / Fold change vs veh, WDR92 / RFU, CUX1 / Fold change vs veh, CUX1 / RFU, TTC7A / Fold change vs veh, TTC7A / RFU, TMEM135 / Fold change vs veh, TMEM135 / RFU, DEPTOR / Fold change vs veh, DEPTOR / RFU, CPM / Fold change vs veh, CPM / RFU, DNAJB6 / Fold change vs veh, DNAJB6 / RFU, CACNA2D3 / Fold change vs veh, CACNA2D3 / RFU, DTX4 / Fold change vs veh, DTX4 / RFU, TFCP2 / Fold change vs veh, TFCP2 / RFU, GMCL1 /// GMCL1P1 / Fold change vs veh, GMCL1 /// GMCL1P1 / RFU, AEBP2 / Fold change vs veh, AEBP2 / RFU, SNHG1 /// SNORD22 /// SNORD25 /// SNORD26 /// SNORD27 /// SNORD28 /// SNORD29 /// SNORD31 / Fold change vs veh, SNHG1 /// SNORD22 /// SNORD25 /// SNORD26 /// SNORD27 /// SNORD28 /// SNORD29 /// SNORD31 / Fold change (Aza/veh), C12orf56 (ProbeSet 11735607_a_at) / Fold change (ACY-1035/veh), C12orf56 (ProbeSet 11735607_a_at) / Fold change (Aza/veh), FGFR1OP (ProbeSet 11751329_s_at) / Fold change (ACY-1035/veh), FGFR1OP (ProbeSet 11751329_s_at) / Fold change (Aza/veh), VPS36 (ProbeSet 11739960_a_at) / Fold change (ACY-1035/veh), VPS36 (ProbeSet 11739960_a_at) / RFU SYPL1 (11715823_x_at) / Fold change /veh SYPL1 (11715823_x_at) / RFU IGFBP7 (11715501_s_at) / Fold change /veh IGFBP7 (11715501_s_at) / RFU REEP3 (11722064_at) / Fold change /veh REEP3 (11722064_at) / RFU IGLL1 (11728026_x_at) / Fold change /veh IGLL1 (11728026_x_at): dose or concentration left out as unconfirmed. To be noted: ProbeSet 11726661_s_at; LIST B.

Molecules are shown by their SMILES.

Take `Nc1ncn([C@@H]2O[C@H](CO)[C@@H](O)[C@H]2O)c(=O)n1` [azacitidine]: the “RFU, GPN3” value came to 248.57 RFU.
